The text below walks through data of ChEMBL document CHEMBL1128994, “Carboxylic acid bioisosteres of -linked dipeptide analogues of the folate-based thymidylate synthase (TS) inhibitor, 2-desamino-2-methyl-N10-propargyl-5,8-dideazafolic acid (ICI 198583)” (Bioorg Med Chem Lett, 1996).

In one assay the test system is L1210 (1565). The experiment in a line: Compound was evaluated for the growth inhibition of […]. It counts as functional, cell-based.
In assay [1] the test system is L1210. The experiment in a line: Compound was evaluated for the growth inhibition of mouse L1210 (impaired) cells. It counts as functional, cell-based.
The test system of assay [2] is L1210. Briefly: Compound was evaluated for the growth inhibition of mouse L1210 cells. It counts as functional, cell-based.
In assay [3] the target is T1, Thymidylate synthase (Mus musculus, UniProt P07607). Briefly: Compound was evaluated for the inhibition of Thymidylate synthase in experiment 2.
The test system of assay [4] is L1210. Briefly: Compound was evaluated for the growth inhibition of mouse L1210 cells in experiment 2. The assay is classed as functional, cell-based.
Assay [5] has as its target T1, Thymidylate synthase. The experiment in a line: Compound was evaluated for the inhibition of Thymidylate synthase in experiment 1.
Assay [6] concerns L1210. Briefly: Compound was evaluated for the growth inhibition of mouse L1210 cells in experiment 1. The assay is classed as functional, cell-based.
In assay [7] the target is T1, Thymidylate synthase. Briefly: Compound was evaluated for the inhibition of Thymidylate synthase.

T1 sequence (P07607 whole entry): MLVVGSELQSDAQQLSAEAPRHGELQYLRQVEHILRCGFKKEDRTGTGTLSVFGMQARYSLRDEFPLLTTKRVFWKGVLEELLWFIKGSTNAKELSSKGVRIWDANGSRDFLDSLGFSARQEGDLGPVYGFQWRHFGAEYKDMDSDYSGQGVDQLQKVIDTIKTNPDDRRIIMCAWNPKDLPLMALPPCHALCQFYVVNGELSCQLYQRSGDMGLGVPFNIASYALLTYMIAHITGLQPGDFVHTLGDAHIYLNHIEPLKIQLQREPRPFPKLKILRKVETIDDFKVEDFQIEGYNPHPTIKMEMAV

For the molecule `C#CCN(Cc1ccc2nc(C)nc(O)c2c1)c1ccc(C(=O)N[C@@H](CCC(=O)N[C@H](CCC(=O)O)C(=O)O)C(=O)O)cc1`, the IC50 in the assay on L1210 (1565) worked out at 16 µM; with L1210 [1] it was 15 µM; in the assay with L1210 [2] (Mus musculus, L1210) it was 0.33 µM.
Turning to `C#CCN(Cc1cc2c(O)nc(C)nc2cc1C)c1ccc(C(=O)N[C@@H](CCC(=O)N[C@@H](CCc2nnn[nH]2)C(=O)O)C(=O)O)c(F)c1`, the IC50 worked out at 7.4 µM in the assay with L1210 (1565); 0.00186 µM on Thymidylate synthase [3]; 8 µM in the assay on L1210 [1]; 0.75 µM with L1210 [4]; 0.00082 µM at Thymidylate synthase [5]; 1.5 µM with L1210 [6].
As to `C#CCN(Cc1cc2c(=O)[nH]c(C)nc2cc1C)c1ccc(C(=O)N[C@@H](CCC(=O)NC(CCC(=O)O)C(=O)O)C(=O)O)c(F)c1` (stereo in doubt), the IC50 was 8.7 µM with L1210 (1565); 0.00092 µM on Thymidylate synthase [3]; 6.8 µM in the assay on L1210 [1]; 0.0004 µM at Thymidylate synthase [5]; 0.2 µM in the assay with L1210 [2] (Mus musculus, L1210).
As for `C#CCN(Cc1ccc2nc(C)[nH]c(=O)c2c1)c1ccc(C(=O)N[C@@H](CCC(=O)N[C@@H](CCc2nnn[nH]2)C(=O)O)C(=O)O)cc1`, the IC50 in the assay with L1210 (1565) is 41 µM; at Thymidylate synthase [3], 0.004 µM; in the assay on L1210 [1] it was 44 µM; in the assay with L1210 [4] it was 4.9 µM; against Thymidylate synthase [5], 0.006 µM; with L1210 [6] it was 6.2 µM.
Turning to `C#CCN(Cc1cc2c(O)nc(C)nc2cc1C)c1ccc(C(=O)N[C@@H](CCC(=O)N[C@@H](C)c2nnn[nH]2)C(=O)O)c(F)c1`, the 50% inhibitory concentration (IC50) was determined as 0.001 µM against Thymidylate synthase [7]; 1 µM in the assay with L1210 (1565); 2 µM with L1210 [1]; 0.35 µM in the assay on L1210 [2] (Mus musculus, L1210); 0.26 µM in the assay on L1210 [2] (l1210).

Usually IC50 stands for the concentration at which inhibition is half-maximal. The low end stands for higher potency, the high end for lower potency.
